Active and inactive are the calls of the source. No cut-off for these calls is given here.
Assays:
SW1990 [1] = experiment: Induction of apoptosis in human SW1990 cells assessed as early apoptotic cells at 1 uM measured after 4 days in presence of 3 uM Olaparib by Annexin V-FITC and propidium iodide staining based flow cytometry (reference value: 1.62%); format: functional; conditions: time 4 day
SW1990 [2] = experiment: Effect on ALDH1A1 gene expression in human SW1990 cells at 1 uM in presence of Olaparib by Q-PCR analysis; format: functional, cell-based
SW1990 [3] = experiment: Induction of cell cycle arrest in human SW1990 cells assessed as accumulation of cells at S phase at 1 uM incubated for 4 days in presence of 3 uM Olaparib by propidium iodide staining based flow cytometry (reference value: 29.32%); format: functional; conditions: time 4 day
SW1990 [4] = experiment: Effect on BRCA1 gene expression in human SW1990 cells at 1 uM in presence of Olaparib by Q-PCR analysis; format: functional, cell-based
[5] = Toxicity in nude mouse xenografted with human SW1990 cells assessed as kidney damage at 15 mg/kg, ip administered for 28 days in presence of 45 mg/kg Olaparib by H and E staining based fluorescence microscopic analysis; format: organism-based; conditions: in vivo, 672 h, time 28 day
SW1990 [6] = experiment: Induction of apoptosis in human SW1990 cells assessed as necrotic cells at 1 uM measured after 4 days in presence of 3 uM Olaparib by Annexin V-FITC and propidium iodide staining based flow cytometry (reference value: 2.45%); format: functional; conditions: time 4 day
SW1990 [7] = experiment: Effect on FOXO1 gene expression in human SW1990 cells at 1 uM in presence of Olaparib by Q-PCR analysis; format: functional, cell-based
SW1990 [8] = experiment: Effect on BRCA2 gene expression in human SW1990 cells at 4 uM by Q-PCR analysis; format: functional, cell-based
SW1990 [9] = experiment: Induction of DNA damage in human SW1990 cells assessed as increase in tail DNA at 6 uM incubated for 4 days by comet assay; format: functional, cell-based; conditions: time 4.0 day
[10] = Toxicity in nude mouse xenografted with human SW1990 cells assessed as liver damage at 45 mg/kg, ip administered for 28 days by H and E staining based fluorescence microscopic analysis; format: organism-based; conditions: in vivo, 672 h, time 28 day
Mus musculus [11] = experiment: Upregulation of CCND1 expression in nude mouse xenografted with human SW1990 cells at 45 mg/kg, ip measured after 4 days by Q-PCR analysis; format: functional, organism-based; conditions: time 4.0 day
SW1990 [12] = experiment: Induction of BRCA2 accumulation in nucleus of human SW1990 cells at 6 uM measured after 4 days by Western blot analysis; format: functional, cell-based; conditions: time 4.0 day
SW1990 [13] = experiment: Upregulation of Rad51 expression in human SW1990 cells at 6 uM measured after 4 days by Western blot analysis; format: functional, cell-based; conditions: time 4.0 day
SW1990 [14] = experiment: Induction of DNA damage in human SW1990 cells assessed as increase in gammaH2AX expression at 6 uM incubated for 4 days by DAPI staining based laser confocal microscopic analysis; format: functional, cell-based; conditions: time 4.0 day
SW1990 [15] = experiment: Effect on BRCA1 gene expression in human SW1990 cells at 6 uM by Q-PCR analysis; format: functional, cell-based
Mus musculus [16] = experiment: Inhibition of homologous recombinant repair in nude mouse xenografted with human SW1990 cells assessed as reversal of olaparib-induced HEXIM1 expression at 30 mg/kg, ip measured after 4 days by Western blot analysis; format: functional, organism-based; conditions: time 4.0 day
Mus musculus [17] = experiment: Inhibition of PARP1 expression in nude mouse xenografted with human […] cells at 30 mg/kg, ip administered for 28 days by Western blot analysis; format: functional, organism-based; conditions: time 28.0 day
SW1990 [18] = experiment: Inhibition of E2F2 protein expression in human SW1990 cells at 1 to 2 uM measured after 4 days by Western blot analysis; format: functional, cell-based; conditions: dose 1-2 µM, time 4.0 day
Mus musculus [19] = experiment: Inhibition of homologous recombinant repair in nude mouse xenografted with human SW1990 cells assessed as reversal of olaparib-induced Rad51 expression at 30 mg/kg, ip after 4 days by Western blot analysis; format: functional, organism-based; conditions: time 4.0 day
SW1990 [20] = experiment: Induction of apoptosis in human SW1990 cells assessed as early apoptotic cells at 2 uM measured after 4 days by Annexin V-FITC and propidium iodide staining based flow cytometry (reference value: 1.62%); format: functional; conditions: time 4 day
SW1990 [21] = experiment: Effect on ALDH1A1 gene expression in human SW1990 cells at 1 to 2 uM by Q-PCR analysis; format: functional, cell-based; conditions: dose 1-2 µM
SW1990 [22] = experiment: Induction of apoptosis in human SW1990 cells assessed as necrotic cells at 2 uM measured after 4 days by Annexin V-FITC and propidium iodide staining based flow cytometry (reference value: 2.45%); format: functional; conditions: time 4 day
SW1990 [23] = experiment: Inhibition of CCNB1 protein expression in human SW1990 cells at 1 to 2 uM measured after 4 days by Western blot analysis; format: functional, cell-based; conditions: dose 1-2 µM, time 4.0 day
Mus musculus [24] = experiment: Induction of DNA damage in human SW1990 cells xenografted in nude mouse assessed as increase in gammaH2AX at 30 mg/kg, ip by immunohistochemical analysis; format: functional, organism-based
SW1990 [25] = experiment: Effect on MDC1 gene expression in human SW1990 cells at 1 to 2 uM by Q-PCR analysis; format: functional, cell-based; conditions: dose 1-2 µM
MDA-MB-231 = experiment: Antiproliferative activity against BRCA-proficient human MDA-MB-231 cells assessed as inhibition of cell growth measured after 7 days by MTT assay; format: functional, cell-based; conditions: MDA-MB-231, 168 h
SW1990 [26] = experiment: Effect on HEXIM1 gene expression in human SW1990 cells at 1 to 2 uM by Q-PCR analysis; format: functional, cell-based; conditions: dose 1-2 µM

In the case of `Cc1sc2c(c1C)C(c1ccc(Cl)cc1)=N[C@@H](CC(=O)OC(C)(C)C)c1nnc(C)n1-2`, the Activity (SW1990 [1]) is reported as 3.07%, the Activity (SW1990 [2]) is reported as “Active” and the Activity (SW1990 [3]) is reported as 19.33%. For the same compound, the Activity (SW1990 [4]) was “Active”, the Activity [5] was “Non-Toxic” and the Activity (SW1990 [6]) was 5.76%. The Activity (SW1990 [7]) was “Active” and the Activity (SW1990 [8]) was “Active”.
For `O=C(c1cc(Cc2n[nH]c(=O)c3ccccc23)ccc1F)N1CCN(C(=O)C2CC2)CC1` [OLAPARIB], the Activity (SW1990 [9]) was “Active”, the Activity [10] was “Non-Toxic” and the Activity (Mus musculus [11]) was “Active”. For the same compound, the Activity (SW1990 [12]) was “Active”, the Activity (SW1990 [13]) was “Active” and the Activity (SW1990 [14]) was “Active”. For the same compound, the Activity (SW1990 [15]) was “Active”.
With `Cc1noc(C)c1-c1ccc2c(c1)C(c1ccccc1)N(Cc1nc3c(C(N)=O)cccc3[nH]1)C(=O)N2C` (configuration not stated) the inhibition (Mus musculus [16]) was “Active”, the inhibition (Mus musculus [17]) was “Active” and the inhibition (SW1990 [18]) was “Active”. For the same compound, the inhibition (Mus musculus [19]) was “Active”, the Activity (SW1990 [20]) was 1.06% and the Activity (SW1990 [21]) was “Active”. The Activity (SW1990 [22]) was 3.52%, the inhibition (SW1990 [23]) was “Active” and the Activity (Mus musculus [24]) was “Active”. The Activity (SW1990 [25]) was “Active”, the IC50 (MDA-MB-231) was 0.14 µM and the Activity (SW1990 [26]) was “Active”.

— ChEMBL document CHEMBL5131471, “Design, synthesis and mechanism studies of novel dual PARP1/BRD4 inhibitors against pancreatic cancer” (Eur J Med Chem, 2022)
